Laboratory results: US8647835B2, “Methods for separation, characterization and/or identification of microorganisms using spectroscopy” (bio Mérieux, Inc., priority 2008, dated 2014)

Assays:
Assay type in all cases: cell-based
[1] = tested on: Streptococcus pneumoniae, strain WM-43; experiment: Intrinsic fluorophores of S. pneumoniae pellet after detergent lysis buffer; conditions: for Flavin/NADH surrogate marker for viability: S. pneumoniae cell pellet; for Flavin / NADH / Tryptophan: intrinsic fluorophore level of S. pneumoniae cell pellet, detergent in 0.3M CAPS, pH 11.7; for NADH/Flavin: ratio of fluorescence signals of S. pneumoniae cell pellet
Protocol: (§1) Lysis buffers were prepared containing detergents of differing structure and lytic activity in a base buffer formulation of 0.3M CAPS, pH 11.7. These lysis buffers were functionally assessed using positive blood culture broth containing a clinical microorganism strain known to be sensitive to detergents and alkaline pH conditions, Streptococcus pneumoniae, strain WM-43. Parameters evaluated were microbial intrinsic fluorescence levels (Excitation-Emission Matrix spectra), separation efficiency, appearance of isolated microbial pellet, and Gram stain characteristics and viability of microorganisms recovered from the pellet beneath the density cushion.
(§2) The procedure was performed as follows:
(§3) Mix 2 parts of positive broth with 1 part of test lysis buffer, incubate in a 37 C water bath for 1 minute to lyse blood cells, then layer 0.5 mL of lysate over 0.2 mL of density cushion (14% w/v Iohexyl+1.93% w/v NaCl+10 mM Hepes, pH 7.4) dispensed into a 2-piece optical separation tube which was then hermetically sealed with a screw-cap. After centrifuging the tube in an Eppendorf® 5417R micrcentrifuge fitted with a A-8-11 swing out rotor (Eppendorf, New York) for 2 minutes at 10,000 rpm, the tube was placed into a custom-built adapter which coupled the base of the tube directly to a 400 micron fiber optic probe connected to a spectrofluorimeter (Fluorolog® 3 (HORIBA Jobin Yvon Inc., New Jersey), and a complete EEM scan was taken (Ex 260-850 nm; Em 260-1100 nm; every 5 nm). Following the scan, the supernatant was removed and the microbial pellet resuspended in 0.5 mL of Tryptic Soy Broth (TSB). Smears of the suspensions were prepared for Gram staining and twenty microliters of a 1:100 dilution were plated onto Sheep Blood Agar plates for viability estimation on a scale of NG (no growth) to 4+ (maximal growth).
The effect of the test detergents on the level of intrinsic fluorophores present within the S. pneumoniae cell pellet is shown in Table 5. As taught by the results presented in Example 3, the ratio of Flavin to NADH fluorescence is an excellent indicator of this sensitive microbe's health. Low ratios are associated with reduced microbial viability, such as observed with n-octyl glucoside and CHAPS detergents. The four groups represented in Table 5 fall into categories that directly correlate with the alterations observed in Gram reactivity of the S. pneumoniae cells recovered from the pellet (Table 4).

[2] = tested on: Streptococcus pneumoniae, strain WM-43; experiment: Gram stain and viability of S. pneumoniae recovered from pellet after detergent lysis buffer; conditions: for Viability of Pellet: 1:100 dilution plated onto Sheep Blood Agar, scale NG to 4+
Protocol: as §1, §2, §3

[3] = tested on: S. pneumoniae strain, WM43; experiment: Viability of recovered S. pneumoniae with lysis buffer / density cushion combinations (Example 7); conditions: irrespective of the makeup of the density cushion

Molecule	Flavin/NADH surrogate marker for viability [1]	Flavin [1]	NADH [1]	Tryptophan [1]	NADH/Flavin [1]	Viability of Pellet [2]	Gram Stain of Pellet, Bacteria (cocci): Gram positive ([2]; detergent at table concentration (0.45-3.0%) in 0.3M CAPS, pH 11.7, 1 minute 37 C, 'No organisms seen' applies to all cocci)	Gram Stain of Pellet, Bacteria (cocci): Gram negative ([2]; detergent at table concentration (0.45-3.0%) in 0.3M CAPS, pH 11.7, 1 minute 37 C)	effect on Gram reaction / Gram reactivity of S. pneumoniae isolate ([2]; desired lysis conditions of Example 6)	viability of the recovered S. pneumoniae cells [3]
CCCCCCCCO[C@@H]1O[C@H](CO)[C@@H](O)[C@H](O)[C@H]1O [Detergent 1, n-octyl glucoside]	Low ratios	71,678	33,268	606,171	0.5	No growth	No organisms seen	–	–	–
C[C@H](CCC(=O)NCCC[N+](C)(C)CCCS(=O)(=O)[O-])[C@H]1CC[C@H]2[C@@H]3[C@H](O)C[C@@H]4C[C@H](O)CC[C@]4(C)[C@H]3C[C@H](O)[C@]12C [Detergent 2, CHAPS]	Low ratios	77,403	55,976	607,343	0.7	Scant	–	Rare Gram	–	–
CCCCCCCCCCCCOCCOCCOCCOCCOCCOCCOCCOCCOCCO [Detergent 6, nonaethylene glycol monododecyl ether]	–	–	–	–	34.5	–	–	–	relatively minor effect	not as high
(Octylphenoxy)polyethoxyethanol [Detergent 4]	–	38,703	1,300,815	1,019,649	33.6	–	–	–	–	–
polyoxyethylene (20) oleyl ether [Detergent 12]	significant improvement	29,781	1,703,221	1,047,866	57.2	–	–	–	–	–
